Source: the NIST ThermoML archive (doi:10.1016/j.fluid.2013.12.020)
± gives the expanded uncertainty stated by the source.

Conditions: 101.33 kPa, Liquid; for viscosity: Falling or rolling sphere viscometry; for mass density: Vibrating tube method

viscosity (293.15 K) | mass density (293.15 K) | viscosity (303.15 K) | mass density (303.15 K) | viscosity (313.15 K) | mass density (313.15 K) | viscosity (323.15 K) | mass density (323.15 K) | viscosity (333.15 K) | mass density (333.15 K) | Structure (SMILES)
48.53 ± 2.1 mPa·s | 1065.4 ± 2.2 kg/m3 | 31.73 ± 1.4 mPa·s | 1059.09 ± 2.1 kg/m3 | 22.09 ± 0.96 mPa·s | 1052.83 ± 2.1 kg/m3 | 16.17 ± 0.7 mPa·s | 1046.62 ± 2.1 kg/m3 | 12.35 ± 0.54 mPa·s | 1040.48 ± 2 kg/m3 | CCCCn1cc[n+](C)c1.N#CN=C=[N-] [1-butyl-3-methylimidazolium dicyanamide]
23.76 ± 0.98 mPa·s | 1015.96 ± 0.3 kg/m3 | 14.85 ± 0.61 mPa·s | 1008.05 ± 0.29 kg/m3 | 9.943 ± 0.41 mPa·s | 1000.09 ± 0.29 kg/m3 | 6.984 ± 0.29 mPa·s | 992.07 ± 0.29 kg/m3 | 5.108 ± 0.21 mPa·s | 983.98 ± 0.29 kg/m3 | NCCO [2-aminoethan-1-ol]

Structure (SMILES) | viscosity (293.15 K) | mass density (293.15 K) | viscosity (303.15 K) | mass density (303.15 K) | viscosity (313.15 K) | mass density (313.15 K) | viscosity (323.15 K) | mass density (323.15 K) | viscosity (333.15 K) | mass density (333.15 K)
Cn1cc[n+](CCO)c1.N#C[N-]C#N [3-(2-hydroxyethyl)-1-methyl-1H-imidazol-3-ium dicyanoazanide] | 121.5 ± 6.2 mPa·s | 1192.85 ± 2.7 kg/m3 | 68.67 ± 3 mPa·s | 1186.37 ± 2.7 kg/m3 | 42.93 ± 1.9 mPa·s | 1179.92 ± 2.7 kg/m3 | 28.96 ± 1.3 mPa·s | 1173.52 ± 2.6 kg/m3 | 20.67 ± 0.9 mPa·s | 1167.18 ± 2.6 kg/m3
